According to article PMC12040184, “Zebrafish Polymerase Theta and human Polymerase Theta: Orthologues with homologous function” (PLOS One, 2025):

Tests used:
[1] = target: T1, hPol θ PD (Homo sapiens, UniProt O75417); experiment: primer extension, denaturing gel; assay type: biochemical
T1 construct: gene POLQ; pSUMO3 (POLQM1) vector, 6xHis-SUMO tag cut off; E. coli; ~90 kDa
T1 sequence (O75417 1791-2590): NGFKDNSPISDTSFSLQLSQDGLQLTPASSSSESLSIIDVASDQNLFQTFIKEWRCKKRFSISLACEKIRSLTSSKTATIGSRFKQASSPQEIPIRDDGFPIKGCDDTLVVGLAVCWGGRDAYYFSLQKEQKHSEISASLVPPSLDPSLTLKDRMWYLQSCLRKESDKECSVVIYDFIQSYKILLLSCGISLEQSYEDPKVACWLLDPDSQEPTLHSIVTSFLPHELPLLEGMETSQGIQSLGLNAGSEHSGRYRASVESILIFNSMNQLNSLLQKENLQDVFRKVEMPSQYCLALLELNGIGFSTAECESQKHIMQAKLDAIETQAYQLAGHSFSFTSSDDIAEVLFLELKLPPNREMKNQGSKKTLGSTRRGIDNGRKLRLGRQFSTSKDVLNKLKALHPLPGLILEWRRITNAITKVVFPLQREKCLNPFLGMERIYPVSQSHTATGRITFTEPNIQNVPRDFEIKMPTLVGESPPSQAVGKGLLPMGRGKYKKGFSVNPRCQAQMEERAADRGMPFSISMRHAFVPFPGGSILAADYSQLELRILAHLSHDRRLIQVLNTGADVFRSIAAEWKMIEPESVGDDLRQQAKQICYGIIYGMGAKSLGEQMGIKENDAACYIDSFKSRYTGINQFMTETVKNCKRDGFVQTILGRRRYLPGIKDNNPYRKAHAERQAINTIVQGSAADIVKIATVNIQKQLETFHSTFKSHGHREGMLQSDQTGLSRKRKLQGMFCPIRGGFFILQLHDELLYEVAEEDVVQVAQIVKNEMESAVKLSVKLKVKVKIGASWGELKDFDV

[2] = target: T2, zPol theta PD (DNA polymerase theta polymerase domain) (zebrafish, UniProt F1Q4P4 1832-2576); experiment: EMSA; 10 nM DNA, 0-1000 nM protein; binding buffer (composition not given in the material), 1 h at room temperature, 6% native PAGE; settings: protein: recombinant; tags: 6xHis-SUMO, cleaved off (untagged); label: 5'-6-FAM on strand 1 (25-mer primer); primer-template, 22 bp; 5' overhang 18 nt on template, 3 nt unpaired 5' TTT on primer
T2 sequence: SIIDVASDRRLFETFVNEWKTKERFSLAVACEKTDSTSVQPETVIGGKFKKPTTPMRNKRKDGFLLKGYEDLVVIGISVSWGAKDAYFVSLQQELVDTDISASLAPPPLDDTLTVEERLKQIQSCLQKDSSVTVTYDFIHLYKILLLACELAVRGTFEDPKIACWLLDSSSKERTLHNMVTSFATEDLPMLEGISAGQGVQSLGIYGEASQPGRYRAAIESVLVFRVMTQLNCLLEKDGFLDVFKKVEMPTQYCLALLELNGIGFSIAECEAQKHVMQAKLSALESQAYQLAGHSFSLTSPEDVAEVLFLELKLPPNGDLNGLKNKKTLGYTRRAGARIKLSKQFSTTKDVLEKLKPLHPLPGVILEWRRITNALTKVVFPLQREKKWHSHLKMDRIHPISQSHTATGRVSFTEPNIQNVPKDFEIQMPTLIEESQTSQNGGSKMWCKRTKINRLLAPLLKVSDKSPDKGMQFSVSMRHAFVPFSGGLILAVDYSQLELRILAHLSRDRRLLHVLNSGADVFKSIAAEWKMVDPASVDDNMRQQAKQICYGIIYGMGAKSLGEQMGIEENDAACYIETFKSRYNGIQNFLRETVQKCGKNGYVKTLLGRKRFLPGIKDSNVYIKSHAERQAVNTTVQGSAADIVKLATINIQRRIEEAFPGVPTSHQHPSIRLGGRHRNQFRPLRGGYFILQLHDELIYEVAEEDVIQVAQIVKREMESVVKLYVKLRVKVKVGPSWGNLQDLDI

Molecule: Nc1ncnc2c1ncn2[C@H]1C[C@H](O)[C@@H](COP(=O)(O)OP(=O)(O)OP(=O)(O)O)O1 [dATP]
- primer extension, denaturing gel ([1]; CPD (T-T dimer) 24/33 DNA, 10 mM MgCl2 or MnCl2, pH 8.0, 37 °C, single turnover): Both enzymes were able to readily insert opposite a T-T dimer

Molecule: Nc1ccn([C@H]2C[C@H](O)[C@@H](COP(=O)(O)OP(=O)(O)OP(=O)(O)O)O2)c(=O)n1 [dCTP]
- primer extension, denaturing gel ([1]; 25/40 dsDNA, templating G, MgCl2 or MnCl2, pH 8.0, 37 °C, steady state): Both enzymes were able to incorporate single nucleotides, correct and incorrect as well

B1: 25/40 dsDNA undamaged (dsDNA)
DNA 1: TTTGCCTTGACCATGTAACAGAGAG
DNA 2: TCTCTTCTCTCACTCACGCTCTCTGTTACATGGTCAAGGC
- Kd [2]: 19.8 ± 3.1 nM
